We go through 7 molecules from patent publication US5681563A, “7-vinylidene cephalosporins and methods of using the same” (Research Corporation Technologies, Inc., priority 1996, dated 1997).

The experiment deals with β-lactamase of Enterobacter cloacae P99 (Enterobacter cloacae, UniProt P05364). Briefly: P99 β-lactamase inhibitory activity (loss of nitrocefin hydrolysis by free enzyme). Type of experiment: biochemical. The protocol: The activity of the present compounds against β-lactamases was determined by measuring the IC50. The IC50 value represents the concentration of inhibitor required to effect a 50% loss of activity of free enzyme. The present 7-vinylidenecephems were evaluated as inhibitors of the β-lactamase of Enterobacter cloacae P99. The IC50 value of each compound was determined as follows. Following a 10 minute incubation of a dilute solution of enzyme (2.56 nM) and inhibitor (<0.64 mM), a […] of this incubation mixture was then further diluted into 1 mL nitrocefin solution, and the rate of hydrolysis was measured during a 1 minute period by monitoring the absorbance of nitrocefin as a function of time.
Chain of β-lactamase of Enterobacter cloacae P99 (P05364 21-381): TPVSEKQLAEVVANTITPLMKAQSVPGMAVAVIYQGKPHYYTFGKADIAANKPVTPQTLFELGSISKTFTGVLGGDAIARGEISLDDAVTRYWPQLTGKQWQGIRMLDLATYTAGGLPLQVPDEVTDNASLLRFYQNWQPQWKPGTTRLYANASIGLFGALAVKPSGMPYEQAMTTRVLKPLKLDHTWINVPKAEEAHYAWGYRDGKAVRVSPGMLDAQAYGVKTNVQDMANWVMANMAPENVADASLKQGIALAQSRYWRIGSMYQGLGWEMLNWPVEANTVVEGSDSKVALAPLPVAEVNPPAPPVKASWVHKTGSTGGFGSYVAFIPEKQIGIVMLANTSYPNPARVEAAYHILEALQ

[1] abbreviates: P99 β-lactamase, 10 minute incubation of enzyme (2.56 nM) and inhibitor (<0.64 mM), then dilution into nitrocefin solution, rate over 1 minute.
Where [2] appears, read: P99 β-lactamase, 10 minute incubation of enzyme (2.56 nM) and inhibitor (<0.64 mM), then dilution into nitrocefin solution, rate over 1 minute, read-out: IC50 (converted).

Structures can show the parent of a compound that is named as a salt. Where two headings read alike, the source gives them in different places.

The IC50 is the point on the concentration scale where inhibition reaches its midpoint. Turning to “7-(2'α-t-butyl-2'β-deuteriovinylidene) cephem sulfone”, the IC50 under setting [1] worked out at 0.10 mg/mL.

As to `CC(C)(C)C=C=C1C(=O)N2[C@@H](C(=O)O)C(C)(C)S(=O)(=O)[C@H]12` [6-(2'α-t-butylvinylidene) penam sulfone, reference compound], the IC50 under setting [2] was 1240 nM.

With `CC(=O)OCC1=C(C(=O)O)N2C(=O)C(=C=CC(C)(C)C)[C@H]2SC1` [Compound 13, Sodium Salt of 7-(2'α-t-Butylvinylidene) Cephalosporanic Acid], the half-inhibitory concentration (IC50) under setting [2] was 11600 nM.

`CC(=O)OCC1=C(C(=O)[O-])N2C(=O)C(=C=CBr)C2SC1.[Na+]` (stereo not drawn) [Compound 14, Sodium Salt of 7-(2'α-Bromovinylidene) Cephalosporanic Acid] returned a concentration for half-maximal inhibition (IC50) under setting [1] of 6.16 mg/mL.

`C=C=C1C(=O)N2C(C(=O)O)=C(COC(C)=O)CS[C@H]12` [Compound 15, Sodium Salt of 7-Vinylidene Cephalosporanic Acid]: the IC50 under setting [2] was 91800 nM.

With `CC(=O)OCC1=C(C(=O)O)N2C(=O)C(=C=CC(C)(C)C)[C@H]2S(=O)(=O)C1` [Compound 16, Sodium Salt of 7-(2'α-t-Butylvinylidene) Cephalosporanic Acid Sulfone], the “fold better inhibitor than clavulanic acid” value is recorded as ~350 fold, the “fold better inhibitor than tazobactam” value is given as “approximately five” and the “β-lactamase inhibition (in words)” value is “most potent inhibitor”. Moreover, where the note is “read-out: IC50 (converted)”, the half-inhibitory concentration (IC50) was 135 nM.

Turning to `C=C=C1C(=O)N2C(C(=O)O)=C(COC(C)=O)CS(=O)(=O)[C@H]12` [Compound 17, 7-vinylidenecephem sulfone], the half-maximal inhibitory concentration (IC50) under setting [2] is 351 nM.
